In patent publication US20250019385A1, “SPIROCYCLIC ANNULATED 2-AMINO-3-CYANO THIOPHENES AND DERIVATIVES FOR THE TREATMENT OF CANCER” (Boehringer Ingelheim International GmbH, priority 2023, published 2025):
Like-named read-outs stand apart in the source and are kept apart here.

Columns and labels:
[1] = target: KRAS (G12D)::CRAF protein::protein interaction (Homo sapiens (Human), UniProt P01116, G12D); test: KRAS TR-FRET assay (KRAS G12D::CRAF, GTP); format: binding
Experimental: (§1) This assay measures the inhibitory effect of compounds on KRAS::CRAF protein::protein interactions in the presence of GTP using Time-resolved fluorescence energy transfer (TR-FRET).
(§2) The following wildtype or mutant alleles of KRAS and CRAF protein have been used at the given concentrations:
KRAS (G12D) 1-169, N-terminal 6His-tag, C-terminal avi-tag (Xtal BioStructures, Inc.); final assay concentration 15 nM,
(§3) CRAF Ras binding domain, GST-tag, TEV cleavage site (Boehringer Ingelheim in house protein prep); final assay concentration 15 nM.
(§4) Test compounds dissolved in DMSO were dispensed onto assay plates (Proxiplate 384 PLUS, white, PerkinElmer; 6008289) using an Access Labcyte Workstation with the Labcyte Echo 55x. For the chosen highest assay concentration of 100 μM, 150 nl of compound solution was transferred from a 10 mM DMSO compound stock solution. A series of eleven fivefold dilutions per compound was transferred to the assay plate, compound dilutions were tested in duplicates. DMSO was added as backfill to a total volume of 150 nl.
(§5) The assay runs on a fully automated robotic system. To 150 nl of compound dilution 15 μl of a mix including the respective KRAS allele, CRAF (e.g. KRAS (G12D)::CRAF; final assay concentrations see above), GTP nucleotide (Sigma G8877; final assay concentration 10 μM), Lance Eu—W1024 labeled Streptavidin (PerkinElmer, Cat No AD0063; final assay concentration 1.5 nM) and Anti-GST surelight APC (PerkinElmer, Cat No AD0059G; final assay concentration 30 nM) in assay buffer (1×PBS, 0.1% BSA, 0.05% Tween 20) are added into columns 1-23 and 15 μL of the solution without the respective KRAS allele were added to row 24.
(§6) Plates are kept at room temperature in a darkened incubator. After 60 minutes incubation time the signal is measured in a PerkinElmer Envision HTS Multilabel Reader using the TR-FRET LANCE Ultra specs from PerkinElmer.
(§7) Each plate contains 16 wells of a negative control (diluted DMSO instead of test compound; w respective KRAS allele; column 23) and 16 wells of a positive control (diluted DMSO instead of test compound; w/o respective KRAS allele; column 24).
(§8) IC50 values were calculated and analyzed with Boehringer Ingelheim's MEGALAB 50 application using a 4 parametric logistic model.
(§9) Tables of example compounds disclosed herein contain IC50 values determined using the above assays (see Table 44).

[2] = Plasma protein binding assay (PPB), equilibrium dialysis; format: in vitro ADME; conditions: 10% FCS in PBS; for fraction unbound: bovine, read-out: PPB 10% FCS (% fu)
Outline: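 Compound at 1-10 μmol/L in 10% FCS in PBS was dialysed against PBS (with or without dextran) across a 5-10 kg/mol cut-off membrane for 3-5 h at 37° C. Both chambers were protein-precipitated and compound was quantified by LC-MS. The unbound fraction was calculated from the serum-side and buffer-side concentrations.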

AsPC-1 cells = test: AsPC-1 CTG proliferation assay (120 h) (pancreatic cancer, G12D); format: cell-based
Outline: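 AsPC-1 cells plated overnight, then exposed to logarithmic compound dose series (duplicates) for 120 h at 37° C. Viability by CellTiter-Glo luminescence as percent of DMSO controls, with a T0 reading at compound addition; IC50 from four-parameter non-linear regression.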

SK-CO-1 cells = test: SK-CO-1 CTG proliferation assay (120 h) (CRC, G12V); format: cell-based
Outline: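 Cells seeded overnight in EMEM with 10% FCS, then given logarithmic dose series in duplicate for 120 h at 37° C. CellTiter-Glo luminescence expressed as percent of DMSO controls, with a T0 read at dosing; IC50 by four-parameter non-linear regression.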

[3] = target: KRAS (G12V)::CRAF protein::protein interaction (Homo sapiens (Human), UniProt P01116, C118S/G12V); test: KRAS TR-FRET assay (KRAS G12V::CRAF, GTP); format: binding
Experimental: as §1, §2
KRAS (G12V) 1-169, C118S, N-terminal 6His-tag, C-terminal avi-tag (Boehringer Ingelheim in house protein prep); final assay concentration 15 nM.
as §3, §4, §5, §6, §7, §8, §9

[4] = target: KRAS (WT)::CRAF protein::protein interaction (Homo sapiens (Human), UniProt P01116); test: KRAS TR-FRET assay (KRAS WT::CRAF, GTP); format: binding
Experimental: as §1, §2
KRAS (WT) 1-169, N-terminal 6His-tag, C-terminal avi-tag (Boehringer Ingelheim in house protein prep); final assay concentration 15 nM.
as §3, §4, §5, §6, §7, §8, §9

Sequence of KRAS (G12V)::CRAF protein::protein interaction (P01116 other isoform, or with tags, fused parts or gaps G12V/C118S): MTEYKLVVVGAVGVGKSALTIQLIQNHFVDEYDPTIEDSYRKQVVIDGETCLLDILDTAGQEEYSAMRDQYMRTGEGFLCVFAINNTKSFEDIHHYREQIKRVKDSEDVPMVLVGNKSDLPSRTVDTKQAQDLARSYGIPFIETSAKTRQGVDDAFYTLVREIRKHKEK
Sequence of KRAS (G12D)::CRAF protein::protein interaction (P01116 other isoform, or with tags, fused parts or gaps G12D): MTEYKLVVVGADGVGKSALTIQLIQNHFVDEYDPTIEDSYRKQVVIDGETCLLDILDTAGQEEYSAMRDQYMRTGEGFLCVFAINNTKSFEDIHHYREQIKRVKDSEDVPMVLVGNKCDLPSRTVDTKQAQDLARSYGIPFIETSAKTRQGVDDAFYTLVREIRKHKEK
Sequence of KRAS (WT)::CRAF protein::protein interaction (P01116 other isoform, or with tags, fused parts or gaps): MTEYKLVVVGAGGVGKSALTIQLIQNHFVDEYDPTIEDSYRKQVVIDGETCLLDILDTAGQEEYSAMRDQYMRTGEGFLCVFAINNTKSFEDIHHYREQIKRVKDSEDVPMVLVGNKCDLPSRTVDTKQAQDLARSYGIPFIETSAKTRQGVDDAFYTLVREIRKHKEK

| IC50 [1] | fraction unbound [2] | IC50 (AsPC-1 cells; Homo sapiens, ASPC1) | IC50 (SK-CO-1 cells; Homo sapiens) | IC50 [3] | IC50 [4] | Structure (SMILES) | PPB 10% FCS (% fu) ([2]; fraction unbound) | IC50 (AsPC-1 cells) | IC50 (SK-CO-1 cells) |
| --- | --- | --- | --- | --- | --- | --- | --- | --- | --- |
| 117 nM | 0.09 | 414 nM | 9 nM | 35 nM | 80 nM | C[C@H](Oc1nc(-c2noc3c2CCC[C@@]32CCCc3sc(N)c(C#N)c32)nc2c1CCO[C@]21CCOC1)[C@@H]1CCCN1C [II-9b] | – | – | – |
| 128 nM | 0.28 | 264 nM | 4 nM | 38 nM | 56 nM | C[C@H](Oc1nc(-c2noc3c2CCC[C@@]32CCCc3sc(N)c(C#N)c32)nc2c1CCCO[C@]21CCOC1)[C@@H]1CCCN1C [II-10] | – | – | – |
| 18 nM | 0.3 | 179 nM | 5 nM | 17 nM | 40 nM | C[C@H](Oc1nc(-c2noc3c2CCC[C@@]32CCCc3sc(N)c(C#N)c32)nc2c1CNC[C@]21CCOC1)[C@@H]1CCCN1C [II-15] | – | – | – |

| Structure (SMILES) | IC50 [1] | fraction unbound [2] | IC50 (AsPC-1 cells; Homo sapiens, ASPC1) | IC50 (SK-CO-1 cells; Homo sapiens) | IC50 [3] | IC50 [4] | PPB 10% FCS (% fu) ([2]; fraction unbound) | IC50 (AsPC-1 cells) | IC50 (SK-CO-1 cells) |
| --- | --- | --- | --- | --- | --- | --- | --- | --- | --- |
| C[C@H](Oc1nc(-c2noc3c2CCC[C@@]32CCCc3sc(N)c(C#N)c32)nc2c1CC[C@]21CNCCO1)[C@@H]1C[C@@H](F)CN1C [II-20] | 82 nM | – | – | – | 129 nM | 815 nM | 10 % fu | 215 nM | 148 nM |
